According to article PMC6718478, “A Comprehensive Antimicrobial Activity Evaluation of the Recombinant Microcin J25 Against the Foodborne Pathogens Salmonella and E. coli O157:H7 by Using a Matrix of Conditions” (Frontiers in Microbiology, 2019):
Positions of bridges follow the written chain, without caps; N, C: chain ends. Residues, ends and D or L forms follow the SMILES beside them.

Experiments:
IPEC-J2 cells = experiment: Salmonella-induced damage to IPEC-J2 cells (TEER, FD4, LDH); type: cell-based; conditions: 2 μg/mL for 6 h, Salmonella for 2 h; n = 9
Protocol: FIGURE S2 | Recombinant MccJ25 inhibited Salmonella-induced damage to IPEC-J2 cells. IPEC-J2 cells were cultured with or without recombinant MccJ25 (2 μg/mL) for 6 h in the absence or presence of Salmonella for 2 h. TEER (A), FD4 level (B), and LDH activity (C) in the IPEC-J2 cells were determined. Data are the means ± SEMs of three independent experiments, n = 9. Different superscript lowercase letters within each group indicate significant differences (P < 0.05); The asterisk denotes a significant difference in comparison with the control group (*P < 0.05, **P < 0.01).

E. coli O157:H7 = experiment: Antimicrobial activity (killing) curves; type: cell-based, Escherichia coli; conditions: 4 × MIC; log phase, ~5 × 10^4 CFU/mL in LB, 37°C; plate counts at 0, 2, 4, 6 h; n = 6
Protocol: (§1) To further address the activity of recombinant MccJ25, antimicrobial activity curves and Live/Dead viability assay were performed. A single colony of S. Pullorum CVCC1791, S. Typhimurium ATCC14082, and E. coli O157:H7 was inoculated into 5 mL of LB. The culture was then incubated at 37°C with shaking at 200 rpm overnight. The following day, the culture was diluted 1:100 in fresh LB and again incubated at 37°C with shaking at 200 rpm. For antimicrobial activity, the bacteria were grown until they reached log phase. Approximately 5 × 10^4 CFU/mL bacteria were inoculated into 2 mL of LB containing different concentrations of the recombinant MccJ25 (0, 1 × MIC, 2 × MIC, and 4 × MIC). The cultures (0.1 mL) were serially diluted with PBS and plated on LB and TSA agar at 0, 2, 4, and 6 h. The plates were incubated at 37°C overnight to count colony. Colonies were counted to determine CFU/mL. The experiment was conducted with two replicates in three independent trials.

S. Typhimurium [1] = experiment: Antimicrobial activity in biological food products (skim milk, egg yolk, mincemeat extract); type: cell-based, Salmonella Typhimurium; conditions: 4 × MIC, SKM, 37°C; for viable bacteria after 24 h in the three food products: SEY, SMS, data not shown
Protocol: To further investigate the effects of recombinant MccJ25 on Salmonella and E. coli O157:H7 in different biological food products, sterile skim milk, egg yolk and mincemeat (pork) extract were collected and used as described previously with minor modifications ([Sable et al., 2000]). The skim milk, egg and mincemeat samples were purchased from a Carrefour store in Beijing. Specimens were kept on ice packs in coolers until they reached the laboratory, where they were stored at 4°C. The skim milk (SKM) and mincemeat supernatant (SMS) were autoclave sterilized at 121°C for 20 min. After autoclaving, the SKM and SMS samples were stored at 4°C for further use. The eggs were sterilized with 75% ethanol and transferred into an exceptionally clean bench to collect the egg yolk (SEY). The SEY was diluted 1:1 with sterile distilled water. Biological product samples were mixed with a final concentration of 4 × MIC of recombinant MccJ25 solution in sterile saline water (0.85%). They were then inoculated with S. Pullorum, S. […] Sterilized saline water (SSW) with the recombinant MccJ25 was utilized for comparison. This assay was performed to obtain the desired quantity of cells. The mixtures were tested after 24 h of incubation at 37°C with shaking (250 rpm). After incubation, Salmonella species and E. coli O157:H7 were serially diluted with PBS and plated on LB and TSA agar. The plates were incubated at 37°C overnight to count colony. Colonies were counted to determine CFU/mL. The experiment was conducted with two replicates in three independent trials.

S. Pullorum [2] = experiment: Antimicrobial activity in different growth phases, viable plate counting; type: cell-based, Salmonella Pullorum; conditions: LB, n = 6; for time to reduction to undetectable levels: early- or late-log phase cells, plate counts at 0, 12, 24, 48 h; for time to reduction to non-detectable levels: stationary phase cells, plate counts
Protocol: The effect of growth phase on the anti-Salmonella and -E. coli O157:H7 activity of recombinant MccJ25 was determined by the viable plate counting method, as described previously ([Ma et al., 2016]; [Fan et al., 2017]), with minor modifications. Cultures of the strains in the early-log phase, late-log phase and stationary phase were washed, concentrated and diluted with sterilized phosphate-buffered saline (PBS) to approximately 10^7 CFU/mL. Then, 1 mL was incubated individually in 9 mL of PBS to reach an approximate 10^6 CFU/mL final concentration. The bacterial cells were then inoculated into 5 mL of LB containing different concentrations of MccJ25 (0, 1 × MIC, 2 × MIC, and 4 × MIC). At 0, 12, 24, and 48 h post incubation, the cultures (0.1 mL) were serially diluted with PBS and plated on LB and TSA agar. The plates were incubated at 37°C overnight to count colony. Colonies were counted to determine CFU/mL. The experiment was conducted with two replicates in three independent trials.

S. Typhimurium [3] = experiment: Live/Dead BacLight viability assay; type: cell-based, Salmonella Typhimurium; conditions: at the MIC level, 2 h at 37°C, 5 × 10^4 CFU/mL in LB; fluorescence microscopy
Protocol: (§2) A Live/Dead BacLight Bacterial Viability Kit 7 (Molecular Probes, Inc., Eugene) was used to test bacterial viability. Briefly, 5 × 10^4 CFU/mL S. Pullorum, S. Typhimurium, and E. coli O157:H7 were inoculated into 1 mL of LB containing recombinant MccJ25 at the MIC level specific for each pathogen. Bacterial cultures were incubated at 37°C for 2 h and then incubated in the dark at ambient temperature with SYTO 9 and propidium iodide for 15 min. Bacteria were observed using a fluorescence microscope (EVOS XL Cell Imaging System).

ZO-1 = experiment: Tight junction protein mRNA expression in Salmonella-challenged IPEC-J2 cells, real-time PCR; type: cell-based; conditions: 6 h with recombinant MccJ25, then Salmonella for 2 h, n = 9
Protocol: (§3) IPEC-J2 cells were cultured with or without recombinant MccJ25 for 6 h and then treated with Salmonella for 2 h. Cells were collected, and relative mRNA expression was analyzed by real-time PCR. The data are the means ± SEMs of three independent experiments, n = 9. Different superscript lowercase letters within each group indicate significant differences (P < 0.05).

Claudin-1 = experiment: as above; type: cell-based; conditions: 6 h with recombinant MccJ25, then Salmonella for 2 h, n = 9
Protocol: as §3

S. Typhimurium ATCC14082 = experiment: Antimicrobial activity (killing) curves; type: cell-based, Salmonella Typhimurium; conditions: 4 × MIC; log phase, ~5 × 10^4 CFU/mL in LB, 37°C; plate counts at 0, 2, 4, 6 h; n = 6
Protocol: as §1

S. Pullorum [4] = experiment: Live/Dead BacLight viability assay; type: cell-based, Salmonella Pullorum; conditions: at the MIC level, 2 h at 37°C, 5 × 10^4 CFU/mL in LB; fluorescence microscopy
Protocol: as §2

CC[C@H](C)[C@H](NC(=O)CNC(=O)[C@@H](NC(=O)[C@H](Cc1ccccc1)NC(=O)[C@H](Cc1ccc(O)cc1)NC(=O)[C@@H]1CCC(=O)NCC(=O)NCC(=O)N[C@@H](C)C(=O)NCC(=O)N[C@@H](Cc2c[nH]cn2)C(=O)N[C@@H](C(C)C)C(=O)N2CCC[C@H]2C(=O)N1)C(C)C)C(=O)NCC(=O)N[C@H](C(=O)N1CCC[C@H]1C(=O)N[C@H](C(=O)N[C@@H](CO)C(=O)N[C@@H](Cc1ccccc1)C(=O)N[C@@H](Cc1ccc(O)cc1)C(=O)NCC(=O)O)[C@@H](C)CC)[C@@H](C)O [recombinant MccJ25, microcin J25] (GGAGHVPEYFVGIGTPISFYG-OH; lactam N-8 (inferred); C-terminus assumed)
S. Pullorum-induced decrease in TEER (IPEC-J2 cells): attenuated | S. Pullorum-induced increase in FD4 level (IPEC-J2 cells): attenuated | S. Pullorum-induced increase in LDH level (IPEC-J2 cells): attenuated | incubation time after which the pathogen was eliminated (killing curve) (E. coli O157:H7): 6 h | viable bacteria after 24 h in the three food products (S. Typhimurium [1]; inoculum 10^3 CFU/mL): no viable bacteria were detected | viable bacteria after 24 h in the three food products (S. Typhimurium [1]; inoculum 10^4 CFU/mL): no bacteria were detected | CFU reduction after 24 h (S. Typhimurium [1]; SEY, and SMS, inoculum 10^6 CFU/mL, plate counts, n = 6): approximately 10^3 CFU/mL | time to reduction to undetectable levels (S. Pullorum [2]; 8 μg/mL): ≤ 24 h | time to reduction to undetectable levels (S. Pullorum [2]; 4 × MIC): ≤ 12 h | time to reduction to non-detectable levels (S. Pullorum [2]; 8 μg/mL): ≤ 48 h | time to reduction to non-detectable levels (S. Pullorum [2]; 16 μg/mL): ≤ 24 h | bactericidal activity, Live/Dead staining (SYTO 9 / propidium iodide) (S. Typhimurium [3]): excellent bactericidal activity | mRNA expression of ZO-1 (ZO-1): significantly increased | mRNA expression of Claudin-1 (Claudin-1): significantly increased | incubation time after which the pathogen was eliminated (killing curve) (S. Typhimurium ATCC14082): 6 h | bactericidal activity, Live/Dead staining (SYTO 9 / propidium iodide) (S. Pullorum [4]): excellent bactericidal activity
